Earlier results as cited in US20210145797A1, “COMPOSITIONS FOR TREATING SKIN” (UNIVERSITY OF FLORIDA RESEARCH FOUNDATION, INCORPORATED, priority 2018, published 2021).

Tested on: herpes simplex
Settings: topical over-the-counter treatment of herpes simplex

**Q.** For CCCCCCCCCCCCCCCCCCCCCCO [N-docosanol], which “improvement of time of healing” value (4.1 days to 2.5 days) is on record?
**A.** 1.5 days

**Q.** What about the “time of healing (median)” value (from a median of 4.1 days) of the same compound?
**A.** 2.5 days
